≈ marks a conversion by molar mass, not a printed value.
Experiment: High-throughput Equilibrium Solubility measurement
Assay type: physicochemical
Conditions: phosphate buffer, pH 6.8

## N#Cc1c[nH]c2c(C(=O)N3CCN(CCc4ccc(F)cc4)CC3)cccc12 [compound 3, pruvanserin]
  solubility: 17 µM (≈ 6.4 µg/mL)

Source: publication PMC8513920 (Chemical Science, 2021)
